Columns and labels:
HeLa = assay: MTS proliferation assay, HeLa; assay type: cell-based, human; conditions: 72 h incubation, read-out: MTS proliferation assay IC 50 HeLa
Method in brief: (§1)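 Human lines, EGFP-transfected or not, grow in RPMI-1640 plus 5% or 10% FCS and 2-mercaptoethanol. They receive test compound for 72 h at final concentrations of 10, 3, 1 and 0.3 μM, and MTS conversion is measured at 492 nm.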

[1] = test system: adherent cells or suspension cells; assay: Hoechst 33342 nuclear staining (fraction of apoptotic nuclei); assay type: cell-based; parameters: key: 0 relating to no activity; 1 relating to weak activity comprising less than 70% of the cells; score 2 relating to strong activity comprising more than 70% of the cells
Jily = assay: MTS proliferation assay, Jily; assay type: cell-based; conditions: 72 h incubation, read-out: MTS proliferation assay IC 50 Jily
Description: Cell lines are cultured in RPMI-1640 tissue culture medium containing either 5% or 10% fetal calf serum, 0.05 mM 2-mercaptoethanol, 2 mM glutamine and penicillin/streptomycin 50 μg/ml (complete medium) (Sigma, Buchs, Switzerland). General growth conditions are 37° C. and 7.5% CO2.
The assay is performed in 96 well tissue culture plates. The cells (range: 1.5*10^3-10^4) are seeded out in 80 μl complete medium 24 h prior to compound treatment. The test compounds are added in 20 μl complete medium containing max 5% DMSO. The final compound concentrations in the assays are 10 μM, 3 μM, 1 μM and 0.3 μM, respectively. The assay plates are incubated for 72 h at culture conditions. The MTS reagent is prepared according to the manufacturer's protocol (Promega G1111). 20 μl MTS reagent are added to each well, the assay plates are quickly spun and incubated for another 3 h at culture conditions. Subsequently, the plates are shortly shaked and absorption measured with a microplate-reader at 492 nm.

Jurkat = assay: MTS proliferation assay, Jurkat; assay type: cell-based, human; conditions: 72 h incubation, read-out: MTS proliferation assay IC 50 Jurkat
Method in brief: as §1

HT1080 = assay: MTS proliferation assay, HT1080; assay type: cell-based, human; conditions: HT1080, 72 h incubation; read-out: MTS proliferation assay IC 50 HT1080
Method in brief: as §1

MRC5 = assay: MTS proliferation assay, MRC5; assay type: cell-based; conditions: MRC5, 72 h incubation; read-out: MTS proliferation assay IC 50 MRC5
Method in brief: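 Seed cells in complete RPMI-1640 medium and allow 24 h attachment. Add compounds to final 10 μM, 3 μM, 1 μM or 0.3 μM and incubate 72 h at 37° C. Add MTS, incubate 3 h more, then measure absorption at 492 nm.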

N#CCCNc1nonc1-c1nc2ccccc2n1CC(=O)c1ccc(Br)cc1 [Example 47]
IC50 (HeLa): 10 to 100 nM | Hoechst 33342 nuclear staining score ([1]; H460, conc 0.01 μm): 0 | Hoechst 33342 nuclear staining score ([1]; H460, conc 0.1 μm): 2 (score 2 relating to strong activity comprising more than 70% of the cells) | Hoechst 33342 nuclear staining score ([1]; H460, conc 1 μm): 2 (score 2 relating to strong activity comprising more than 70% of the cells) | Hoechst 33342 nuclear staining score ([1]; HeLa, conc 0.01 μm): 0 | Hoechst 33342 nuclear staining score ([1]; HeLa, conc 0.1 μm): 2 (score 2 relating to strong activity comprising more than 70% of the cells) | Hoechst 33342 nuclear staining score ([1]; HeLa, conc 1 μm): 2 (score 2 relating to strong activity comprising more than 70% of the cells) | Hoechst 33342 nuclear staining score ([1]; Jily, conc 0.01 μm): 0 | Hoechst 33342 nuclear staining score ([1]; Jily, conc 0.1 μm): 2 (score 2 relating to strong activity comprising more than 70% of the cells) | Hoechst 33342 nuclear staining score ([1]; Jily, conc 1 μm): 2 (score 2 relating to strong activity comprising more than 70% of the cells) | Hoechst 33342 nuclear staining score ([1]; Jurkat, conc 0.01 μm): 2 (score 2 relating to strong activity comprising more than 70% of the cells) | Hoechst 33342 nuclear staining score ([1]; Jurkat, conc 0.1 μm): 2 (score 2 relating to strong activity comprising more than 70% of the cells) | Hoechst 33342 nuclear staining score ([1]; Jurkat, conc 1 μm): 2 (score 2 relating to strong activity comprising more than 70% of the cells) | Hoechst 33342 nuclear staining score ([1]; MRC5, conc 0.01 μm): 0 | Hoechst 33342 nuclear staining score ([1]; MRC5, conc 0.1 μm): 2 (score 2 relating to strong activity comprising more than 70% of the cells) | Hoechst 33342 nuclear staining score ([1]; MRC5, conc 1 μm): 2 (score 2 relating to strong activity comprising more than 70% of the cells) | Hoechst 33342 nuclear staining score ([1]; PBLs, conc 0.01 μm): 0 | Hoechst 33342 nuclear staining score ([1]; PBLs, conc 0.1 μm): 0 | Hoechst 33342 nuclear staining score ([1]; PBLs, conc 1 μm): 0 | IC50 (Jily): < 10 nM | IC50 (Jurkat): < 10 nM | IC50 (HT1080): 10 to 100 nM | IC50 (MRC5): 100 to 1000 nM

Cc1ccc(C(=O)Cn2c(-c3nonc3NCCC#N)nc3ccccc32)cc1C [Example 54]
IC50 (HeLa): 10 to 100 nM | Hoechst 33342 nuclear staining score ([1]; H460, conc 0.01 μm): 0 | Hoechst 33342 nuclear staining score ([1]; H460, conc 0.1 μm): 2 (score 2 relating to strong activity comprising more than 70% of the cells) | Hoechst 33342 nuclear staining score ([1]; H460, conc 1 μm): 2 (score 2 relating to strong activity comprising more than 70% of the cells) | Hoechst 33342 nuclear staining score ([1]; HeLa, conc 0.01 μm): 0 | Hoechst 33342 nuclear staining score ([1]; HeLa, conc 0.1 μm): 2 (score 2 relating to strong activity comprising more than 70% of the cells) | Hoechst 33342 nuclear staining score ([1]; HeLa, conc 1 μm): 2 (score 2 relating to strong activity comprising more than 70% of the cells) | Hoechst 33342 nuclear staining score ([1]; Jily, conc 0.01 μm): 1 (1 relating to weak activity comprising less than 70% of the cells) | Hoechst 33342 nuclear staining score ([1]; Jily, conc 0.1 μm): 2 (score 2 relating to strong activity comprising more than 70% of the cells) | Hoechst 33342 nuclear staining score ([1]; Jily, conc 1 μm): 2 (score 2 relating to strong activity comprising more than 70% of the cells) | Hoechst 33342 nuclear staining score ([1]; Jurkat, conc 0.01 μm): 1 (1 relating to weak activity comprising less than 70% of the cells) | Hoechst 33342 nuclear staining score ([1]; Jurkat, conc 0.1 μm): 2 (score 2 relating to strong activity comprising more than 70% of the cells) | Hoechst 33342 nuclear staining score ([1]; Jurkat, conc 1 μm): 2 (score 2 relating to strong activity comprising more than 70% of the cells) | Hoechst 33342 nuclear staining score ([1]; MRC5, conc 0.01 μm): 0 | Hoechst 33342 nuclear staining score ([1]; MRC5, conc 0.1 μm): 2 (score 2 relating to strong activity comprising more than 70% of the cells) | Hoechst 33342 nuclear staining score ([1]; MRC5, conc 1 μm): 2 (score 2 relating to strong activity comprising more than 70% of the cells) | Hoechst 33342 nuclear staining score ([1]; PBLs, conc 0.01 μm): 0 | Hoechst 33342 nuclear staining score ([1]; PBLs, conc 0.1 μm): 0 | Hoechst 33342 nuclear staining score ([1]; PBLs, conc 1 μm): 0 | IC50 (Jily): 10 to 100 nM | IC50 (HT1080): 10 to 100 nM | IC50 (MRC5): 10 to 100 nM

CCc1ccc(C(=O)Cn2c(-c3nonc3NCCC#N)nc3ccccc32)cc1 [Example 56]
IC50 (HeLa): 10 to 100 nM | Hoechst 33342 nuclear staining score ([1]; H460, conc 0.01 μm): 0 | Hoechst 33342 nuclear staining score ([1]; H460, conc 0.1 μm): 0 | Hoechst 33342 nuclear staining score ([1]; H460, conc 1 μm): 2 (score 2 relating to strong activity comprising more than 70% of the cells) | Hoechst 33342 nuclear staining score ([1]; HeLa, conc 0.01 μm): 0 | Hoechst 33342 nuclear staining score ([1]; HeLa, conc 0.1 μm): 1 (1 relating to weak activity comprising less than 70% of the cells) | Hoechst 33342 nuclear staining score ([1]; HeLa, conc 1 μm): 2 (score 2 relating to strong activity comprising more than 70% of the cells) | Hoechst 33342 nuclear staining score ([1]; Jily, conc 0.01 μm): 0 | Hoechst 33342 nuclear staining score ([1]; Jily, conc 0.1 μm): 2 (score 2 relating to strong activity comprising more than 70% of the cells) | Hoechst 33342 nuclear staining score ([1]; Jily, conc 1 μm): 2 (score 2 relating to strong activity comprising more than 70% of the cells) | Hoechst 33342 nuclear staining score ([1]; Jurkat, conc 0.01 μm): 0 | Hoechst 33342 nuclear staining score ([1]; Jurkat, conc 0.1 μm): 2 (score 2 relating to strong activity comprising more than 70% of the cells) | Hoechst 33342 nuclear staining score ([1]; Jurkat, conc 1 μm): 2 (score 2 relating to strong activity comprising more than 70% of the cells) | Hoechst 33342 nuclear staining score ([1]; MRC5, conc 0.01 μm): 0 | Hoechst 33342 nuclear staining score ([1]; MRC5, conc 0.1 μm): 1 (1 relating to weak activity comprising less than 70% of the cells) | Hoechst 33342 nuclear staining score ([1]; MRC5, conc 1 μm): 1 (1 relating to weak activity comprising less than 70% of the cells) | Hoechst 33342 nuclear staining score ([1]; PBLs, conc 0.01 μm): 0 | Hoechst 33342 nuclear staining score ([1]; PBLs, conc 0.1 μm): 0 | Hoechst 33342 nuclear staining score ([1]; PBLs, conc 1 μm): 0 | IC50 (Jily): 10 to 100 nM | IC50 (HT1080): 10 to 100 nM | IC50 (MRC5): 10 to 100 nM

CCc1ccc(C(=O)Cn2c(-c3nonc3N)nc3ccccc32)cc1 [Example 55]
IC50 (HeLa): 100 to 1000 nM | Hoechst 33342 nuclear staining score ([1]; H460, conc 0.01 μm): 0 | Hoechst 33342 nuclear staining score ([1]; H460, conc 0.1 μm): 0 | Hoechst 33342 nuclear staining score ([1]; H460, conc 1 μm): 2 (score 2 relating to strong activity comprising more than 70% of the cells) | Hoechst 33342 nuclear staining score ([1]; HeLa, conc 0.01 μm): 0 | Hoechst 33342 nuclear staining score ([1]; HeLa, conc 0.1 μm): 0 | Hoechst 33342 nuclear staining score ([1]; HeLa, conc 1 μm): 2 (score 2 relating to strong activity comprising more than 70% of the cells) | Hoechst 33342 nuclear staining score ([1]; Jily, conc 0.01 μm): 0 | Hoechst 33342 nuclear staining score ([1]; Jily, conc 0.1 μm): 0 | Hoechst 33342 nuclear staining score ([1]; Jily, conc 1 μm): 2 (score 2 relating to strong activity comprising more than 70% of the cells) | Hoechst 33342 nuclear staining score ([1]; Jurkat, conc 0.01 μm): 0 | Hoechst 33342 nuclear staining score ([1]; Jurkat, conc 0.1 μm): 1 (1 relating to weak activity comprising less than 70% of the cells) | Hoechst 33342 nuclear staining score ([1]; Jurkat, conc 1 μm): 2 (score 2 relating to strong activity comprising more than 70% of the cells) | Hoechst 33342 nuclear staining score ([1]; MRC5, conc 0.01 μm): 0 | Hoechst 33342 nuclear staining score ([1]; MRC5, conc 0.1 μm): 0 | Hoechst 33342 nuclear staining score ([1]; MRC5, conc 1 μm): 0 | Hoechst 33342 nuclear staining score ([1]; PBLs, conc 0.01 μm): 0 | Hoechst 33342 nuclear staining score ([1]; PBLs, conc 0.1 μm): 0 | Hoechst 33342 nuclear staining score ([1]; PBLs, conc 1 μm): 0 | IC50 (Jily): 10 to 100 nM | IC50 (HT1080): 100 to 1000 nM | IC50 (MRC5): 100 to 1000 nM
